Source: PubChem BioAssay (NCI)
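Exposure lasted 48 hours, with cells grown in 96-well plates and compounds tested at five concentrations. GI50: concentration for 50% inhibition of growth. TGI is the concentration that stops growth completely.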

Key:
Assay in all cases: DTP human tumour cell line panel, 48 h
HCT-116 colon = tested on: HCT-116 colon
MDA-MB-231 breast = tested on: MDA-MB-231 breast
SK-MEL-5 melanoma = tested on: SK-MEL-5 melanoma
SF-268 CNS = tested on: SF-268 CNS
KM12 colon = tested on: KM12 colon
HCT-15 colon = tested on: HCT-15 colon
SR leukemia = tested on: SR leukemia
UO-31 renal = tested on: UO-31 renal
RXF 393 renal = tested on: RXF 393 renal
NCI/ADR-RES ovarian = tested on: NCI/ADR-RES ovarian
LOX IMVI melanoma = tested on: LOX IMVI melanoma
SK-MEL-2 melanoma = tested on: SK-MEL-2 melanoma
OVCAR-3 ovarian = tested on: OVCAR-3 ovarian
U251 CNS = tested on: U251 CNS
OVCAR-8 ovarian = tested on: OVCAR-8 ovarian
TK-10 renal = tested on: TK-10 renal
HL-60(TB) leukemia = tested on: HL-60(TB) leukemia
OVCAR-4 ovarian = tested on: OVCAR-4 ovarian
HOP-62 NSCLC = tested on: HOP-62 NSCLC
UACC-257 melanoma = tested on: UACC-257 melanoma
ACHN renal = tested on: ACHN renal
SF-539 CNS = tested on: SF-539 CNS
CAKI-1 renal = tested on: CAKI-1 renal
CCRF-CEM leukemia = tested on: CCRF-CEM leukemia
A498 renal = tested on: A498 renal
NCI-H460 lung = tested on: NCI-H460 lung
RPMI-8226 leukemia = tested on: RPMI-8226 leukemia
PC-3 prostate = tested on: PC-3 prostate
NCI-H23 lung = tested on: NCI-H23 lung
NCI-H522 lung = tested on: NCI-H522 lung
HOP-92 NSCLC = tested on: HOP-92 NSCLC
SNB-19 CNS = tested on: SNB-19 CNS
MDA-MB-435 = tested on: MDA-MB-435
MCF7 breast = tested on: MCF7 breast
T-47D breast = tested on: T-47D breast
SW-620 colon = tested on: SW-620 colon
BT-549 breast = tested on: BT-549 breast
SN12C renal = tested on: SN12C renal
HT29 colon = tested on: HT29 colon
HCC-2998 colon = tested on: HCC-2998 colon
SF-295 CNS = tested on: SF-295 CNS
COLO 205 colon = tested on: COLO 205 colon
DU-145 prostate = tested on: DU-145 prostate
MALME-3M melanoma = tested on: MALME-3M melanoma
NCI-H226 lung = tested on: NCI-H226 lung
K-562 leukemia = tested on: K-562 leukemia
SK-MEL-28 melanoma = tested on: SK-MEL-28 melanoma
OVCAR-5 ovarian = tested on: OVCAR-5 ovarian
786-0 renal = tested on: 786-0 renal
EKVX NSCLC = tested on: EKVX NSCLC
M14 melanoma = tested on: M14 melanoma
SK-OV-3 ovarian = tested on: SK-OV-3 ovarian
A549 NSCLC = tested on: A549 NSCLC
MOLT-4 leukemia = tested on: MOLT-4 leukemia

Q: `NC(=O)c1nc(-c2c(F)cccc2Cl)oc1Nc1ccc(C(=O)N2CCOCC2)cc1` was tested. Which GI50 (HCT-116 colon) did it give?
A: 1.36 µM

Q: And the TGI (HCT-116 colon)?
A: 20 µM

Q: What about the GI50 (MDA-MB-231 breast) of the same molecule?
A: 1.86 µM

Q: And the TGI (MDA-MB-231 breast)?
A: > 100 µM

Q: What about the GI50 (SK-MEL-5 melanoma) of the same molecule?
A: 10.5 µM

Q: What about the TGI (SK-MEL-5 melanoma) of the same molecule?
A: 35.8 µM

Q: And the GI50 (SF-268 CNS)?
A: 3.07 µM

Q: What about the TGI (SF-268 CNS) of the same molecule?
A: > 100 µM

Q: What about the GI50 (KM12 colon) of the same molecule?
A: 0.326 µM

Q: What about the TGI (KM12 colon) of the same molecule?
A: > 100 µM

Q: What about the GI50 (HCT-15 colon) of the same molecule?
A: 2.2 µM

Q: What about the TGI (HCT-15 colon) of the same molecule?
A: > 100 µM

Q: And the GI50 (SR leukemia)?
A: 1 µM

Q: And the TGI (SR leukemia)?
A: 84.7 µM

Q: What about the GI50 (UO-31 renal) of the same molecule?
A: 1.2 µM

Q: What about the TGI (UO-31 renal) of the same molecule?
A: 25.8 µM

Q: And the GI50 (RXF 393 renal)?
A: 0.964 µM

Q: And the TGI (RXF 393 renal)?
A: 5.54 µM

Q: And the GI50 (NCI/ADR-RES ovarian)?
A: 6.23 µM

Q: And the TGI (NCI/ADR-RES ovarian)?
A: > 100 µM

Q: And the GI50 (LOX IMVI melanoma)?
A: 0.914 µM

Q: And the TGI (LOX IMVI melanoma)?
A: 5.61 µM

Q: What about the GI50 (SK-MEL-2 melanoma) of the same molecule?
A: 12.7 µM

Q: What about the TGI (SK-MEL-2 melanoma) of the same molecule?
A: 58.6 µM

Q: And the GI50 (OVCAR-3 ovarian)?
A: 10.3 µM

Q: And the TGI (OVCAR-3 ovarian)?
A: > 100 µM

Q: What about the GI50 (U251 CNS) of the same molecule?
A: 2.25 µM

Q: What about the TGI (U251 CNS) of the same molecule?
A: > 100 µM

Q: And the GI50 (OVCAR-8 ovarian)?
A: 5.83 µM

Q: What about the TGI (OVCAR-8 ovarian) of the same molecule?
A: > 100 µM

Q: What about the GI50 (TK-10 renal) of the same molecule?
A: 2.33 µM

Q: What about the TGI (TK-10 renal) of the same molecule?
A: 34.2 µM

Q: What about the GI50 (HL-60(TB) leukemia) of the same molecule?
A: 0.478 µM

Q: What about the TGI (HL-60(TB) leukemia) of the same molecule?
A: 31.7 µM

Q: What about the GI50 (OVCAR-4 ovarian) of the same molecule?
A: 28.4 µM

Q: And the TGI (OVCAR-4 ovarian)?
A: > 100 µM

Q: And the GI50 (HOP-62 NSCLC)?
A: 2.08 µM

Q: And the TGI (HOP-62 NSCLC)?
A: > 100 µM

Q: What about the GI50 (UACC-257 melanoma) of the same molecule?
A: 11.9 µM

Q: And the TGI (UACC-257 melanoma)?
A: 41.1 µM

Q: What about the GI50 (ACHN renal) of the same molecule?
A: 2.41 µM

Q: What about the TGI (ACHN renal) of the same molecule?
A: > 100 µM

Q: And the GI50 (SF-539 CNS)?
A: 1.32 µM

Q: What about the TGI (SF-539 CNS) of the same molecule?
A: 5.16 µM

Q: And the GI50 (CAKI-1 renal)?
A: 1.44 µM

Q: And the TGI (CAKI-1 renal)?
A: > 100 µM

Q: And the GI50 (CCRF-CEM leukemia)?
A: 0.4 µM

Q: What about the TGI (CCRF-CEM leukemia) of the same molecule?
A: > 100 µM

Q: And the GI50 (A498 renal)?
A: 0.544 µM

Q: What about the TGI (A498 renal) of the same molecule?
A: 3.28 µM

Q: What about the GI50 (NCI-H460 lung) of the same molecule?
A: 0.805 µM

Q: And the TGI (NCI-H460 lung)?
A: > 100 µM

Q: And the GI50 (RPMI-8226 leukemia)?
A: 7.44 µM

Q: What about the TGI (RPMI-8226 leukemia) of the same molecule?
A: 50.7 µM

Q: And the GI50 (PC-3 prostate)?
A: 7.83 µM

Q: What about the TGI (PC-3 prostate) of the same molecule?
A: > 100 µM

Q: And the GI50 (NCI-H23 lung)?
A: 2.91 µM

Q: What about the TGI (NCI-H23 lung) of the same molecule?
A: > 100 µM

Q: What about the GI50 (NCI-H522 lung) of the same molecule?
A: 2.11 µM

Q: And the TGI (NCI-H522 lung)?
A: 57.1 µM

Q: And the GI50 (HOP-92 NSCLC)?
A: 0.262 µM

Q: And the TGI (HOP-92 NSCLC)?
A: 2.11 µM

Q: What about the GI50 (SNB-19 CNS) of the same molecule?
A: 3 µM

Q: And the TGI (SNB-19 CNS)?
A: > 100 µM

Q: What about the GI50 (MDA-MB-435) of the same molecule?
A: 2.03 µM

Q: What about the TGI (MDA-MB-435) of the same molecule?
A: > 100 µM

Q: What about the GI50 (MCF7 breast) of the same molecule?
A: 0.596 µM

Q: And the TGI (MCF7 breast)?
A: > 100 µM

Q: What about the GI50 (T-47D breast) of the same molecule?
A: 3.46 µM

Q: What about the TGI (T-47D breast) of the same molecule?
A: 62.7 µM

Q: And the GI50 (SW-620 colon)?
A: 0.703 µM

Q: And the TGI (SW-620 colon)?
A: > 100 µM

Q: What about the GI50 (BT-549 breast) of the same molecule?
A: 3.62 µM

Q: And the TGI (BT-549 breast)?
A: 54.6 µM

Q: What about the GI50 (SN12C renal) of the same molecule?
A: 2.12 µM

Q: And the TGI (SN12C renal)?
A: > 100 µM

Q: What about the GI50 (HT29 colon) of the same molecule?
A: 1.62 µM

Q: And the TGI (HT29 colon)?
A: > 100 µM

Q: What about the GI50 (HCC-2998 colon) of the same molecule?
A: 14.8 µM

Q: And the TGI (HCC-2998 colon)?
A: > 100 µM

Q: What about the GI50 (SF-295 CNS) of the same molecule?
A: 1.61 µM

Q: What about the TGI (SF-295 CNS) of the same molecule?
A: > 100 µM

Q: And the GI50 (COLO 205 colon)?
A: 1.64 µM

Q: What about the TGI (COLO 205 colon) of the same molecule?
A: 5.89 µM

Q: What about the GI50 (DU-145 prostate) of the same molecule?
A: 11.9 µM

Q: And the TGI (DU-145 prostate)?
A: > 100 µM

Q: What about the GI50 (MALME-3M melanoma) of the same molecule?
A: 13 µM

Q: What about the TGI (MALME-3M melanoma) of the same molecule?
A: 55.6 µM

Q: And the GI50 (NCI-H226 lung)?
A: 0.266 µM

Q: And the TGI (NCI-H226 lung)?
A: > 100 µM

Q: And the GI50 (K-562 leukemia)?
A: 4.66 µM

Q: What about the TGI (K-562 leukemia) of the same molecule?
A: > 100 µM

Q: What about the GI50 (SK-MEL-28 melanoma) of the same molecule?
A: 13.9 µM

Q: What about the TGI (SK-MEL-28 melanoma) of the same molecule?
A: > 100 µM

Q: And the GI50 (OVCAR-5 ovarian)?
A: 2.31 µM

Q: And the TGI (OVCAR-5 ovarian)?
A: > 100 µM

Q: And the GI50 (786-0 renal)?
A: 2.18 µM

Q: What about the TGI (786-0 renal) of the same molecule?
A: > 100 µM

Q: And the GI50 (EKVX NSCLC)?
A: 12.2 µM

Q: What about the TGI (EKVX NSCLC) of the same molecule?
A: > 100 µM

Q: And the GI50 (M14 melanoma)?
A: 13.7 µM

Q: And the TGI (M14 melanoma)?
A: > 100 µM

Q: What about the GI50 (SK-OV-3 ovarian) of the same molecule?
A: 2.58 µM

Q: What about the TGI (SK-OV-3 ovarian) of the same molecule?
A: 75.2 µM

Q: What about the GI50 (A549 NSCLC) of the same molecule?
A: 0.936 µM

Q: And the TGI (A549 NSCLC)?
A: > 100 µM

Q: What about the GI50 (MOLT-4 leukemia) of the same molecule?
A: 2.03 µM

Q: And the TGI (MOLT-4 leukemia)?
A: 37.7 µM
